Source: patent US20250186396A1, “COMPOSITIONS AND METHODS FOR THE TREATMENT OF GLIOBLASTOMA WITH A DUAL TARGETING ANTI-TUMOR COMPOSITION” (Northwestern University, priority 2023, published 2025)

Legend:
Format in all cases: in vivo, C57BL/6 mice
005 GSC tumors = test: Flow cytometry of tumor-derived immune cells, 005 GSC tumors
Description: (§1) Mice and Intracranial Xenograft Tumor Models. Female C57BL/6 mice at 3 to 4 weeks of age were purchased from the Jackson Laboratory (#0000664). All animals were grouped by 5 mice per cage and maintained in IVC System (San Diego, CA) for a week before the experiment. All animal experiments were performed with the approval of the Institutional Animal Care and Use Committee (IACUC) at Northwestern University. The intracranial xenograft tumor models were established previously. In brief, mice were anesthetized by isoflurane through IMPAC6 Anesthesia System. Then a dental drill was used to open a small hole in the skull of mice 1.2 mm anterior and 3.0 mm lateral to the bregma. Mice were placed into the stereotactic apparatus, and 5 μL 005 GSC, CT2A, or GL261 cells in FBS-free culture medium were injected into the right caudate nucleus 3 mm below the surface of the brain using a 10 μL Hamilton syringe with an unbeveled 30-gauge needle. The incision was closed using Vetbond glue. Meloxicam (20 mg/kg, daily) was subcutaneously injected for pain relief for 3 days after surgery. Mice received the treatment with BAPN (2 g/L in drinking water) on day 4, SR9009 (100 mg/kg body weight, i.p.) daily for 10 days beginning at day 7 post-orthotopic injection, anti-PD1 (10 mg/kg body weight, i.p.) on days 11, 14, and 17 post-orthotopic injection, and/or clodronate liposomes (200 μL, once every 3 days) starting at day 4 post-orthotopic injection. Mice with neurological deficits or moribund appearance were sacrificed according to the IACUC protocol. At the end of the experiment, the brains of mice were collected, either fixed in 4% paraformaldehyde (PFA) (ThermoFisher Scientific, #J61899.AK) after transcardiac perfusion with PBS for optimal cutting temperature (OCT)-cryosectioning or processed using the percoll density gradient cell separation method to isolate tumor-derived immune cells for flow cytometry analysis.
Tumor-derived immune cells isolation. Mice with neurologic deficits or moribund appearance were sacrificed to harvest their brains. Immune cells in the brain tumors were isolated using the percoll density gradient cell separation method as previously described. In brief, after perfusion with PBS, brains were homogenized on ice with pre-cold 10 mL HBSS. Then cells were spun down at 1,500 rpm for 10 minutes at 4° C., and were resuspended in 30% Percoll (GE Healthcare, #17-0891-01). The solution was gently laid on top of the 70% Percoll and centrifuged at 1,200 g for 30 minutes at 4° C. with accelerator 7 and breaker 0. After removing myelin and debris, the interphase was collected and centrifuged at 1,500 rpm for 10 minutes at 4° C. […]
Flow cytometry. […] Samples were read through the BD FACSymphony or BD LSRFortessa flow cytometer and analyzed in FlowJo v10.8.1.

CT2A tumors [1] = test: Immunofluorescence staining of CT2A tumors; conditions: for intratumoral CD4+ T cells / intratumoral CD8+ T cells / intratumoral activated CD8+ (CD8+CD69+) T cells: CT2A model, BAPN 2 g/L in drinking water from day 4, SR9009 100 mg/kg i.p. daily for 10 days from day 7; for CX3CR1+ microglia in tumors / F4/80+ macrophages in tumors: CT2A tumors vs control, BAPN 2 g/L drinking water or SR9009 100 mg/kg i.p. daily 10 days
Description: as §1
Immunofluorescence. Immunofluorescence was performed using a standard protocol that was previously established. In brief, slides from cryosections were kept at room temperature for 30 minutes and fixed in 10% PFA for 30 minutes prior to permeabilization. Then, 0.25% Triton X-100 in PBS was added for 30 minutes at room temperature to permeabilize the cell membrane. After three times PBS washing, sections were blocked by 5% goat serum for 30 minutes. Specimens were incubated with primary antibody for 1 hour at room temperature and then overnight at 4° C. Then, the unbound primary antibodies were washed out by three times PBS for 3 minutes each and corresponding secondary antibody cocktails were prepared and added to the sections for 1 hour incubation. Cell nuclear was counterstained with DAPI/anti-fade mounting medium (Vector Laboratories, #H-1200-10). Immunofluorescence images were captured using Nikon AX/AX R Confocal Microscope System with an apo 60 1.40 Oil 160/0.17 objective in the Center for Advanced Microscopy (CAM) at Northwestern University. The relative intensity of the protein signal was determined by Image J. For one slide, 3-5 fields of images were captured randomly, and the intensity of the protein signal was determined by Image J. The average quantified value of these 3-5 fields was represented as the protein signal intensity of one sample and presented as the individual point in the bar graph. Antibodies specific to CD8 (Invitrogen, #PA5-81344), CD69 (Santa Cruz Biotechnology, #sc-373799), CX3CR1 (Invitrogen, #702321), F4/80 (Cell Signaling Technology, #30325S), OLFML3 (Invitrogen, #702321), Ki67 (Cell Signaling Technology, #9129S), and CC3 (Cell Signaling Technology, #9661S) were used.

CT2A tumors [2] = test: Flow cytometry of tumor-derived immune cells, CT2A tumors; conditions: for CD45+CD3+CD8+CD69+ activated T cells / CD45+CD3+CD8+IFN-γ+ activated T cells: CT2A tumors
Description: as §1
Tumor-derived immune cells isolation. Mice with neurologic deficits or moribund appearance were sacrificed to harvest their brains. Immune cells in the brain tumors were isolated using the percoll density gradient cell separation method as previously described. In brief, after perfusion with PBS, brains were homogenized on ice with pre-cold 10 mL HBSS. Then cells were spun down at 1,500 rpm for 10 minutes at 4° C., and were resuspended in 30% Percoll (GE Healthcare, #17-0891-01). The solution was gently laid on top of the 70% Percoll and centrifuged at 1,200 g for 30 minutes at 4° C. with accelerator 7 and breaker 0. After removing myelin and debris, the interphase was collected and centrifuged at 1,500 rpm for 10 minutes at 4° C. The cell pellet was resuspended for further analysis.
Flow cytometry. The single-cell suspensions were incubated with fixable viability dye (Invitrogen, #5211229035) on ice for 10 minutes. After washing with FACS buffer, cells were incubated with the TruStain FcX (anti-mouse CD16/32) Antibody (BioLegend, #103132) and True-Stain Monocyte Blocker (BioLegend, #426102) in 5% BSA for 30 minutes on ice to block Fc receptors and non-specific binding of the cyanine acceptor fluorophores. Different antibody cocktails, including Percp/Cy5.5 anti-mouse CD45 (BioLegend, […]), AF488 anti-mouse CD3 (BioLegend, #100210), BV711 anti-mouse CD8 (BioLegend, #100747), PE/Cy7 anti-mouse CD69 (BioLegend, #104512), APC/Cy7 anti-mouse IFN-γ (BioLegend, #505850), PE/Cy7 anti-mouse/human CD11b (BioLegend, #101216), PE anti-mouse CD68 (BD Bioscience, #566386), and BV421 anti-mouse CX3CR1 (BD Bioscience, #567531) were added to the samples and incubated for 30 minutes on ice. After washing with FACS buffer, cells were incubated with fixation buffer (BioLegend, #420801) overnight. Samples were read through the BD FACSymphony or BD LSRFortessa flow cytometer and analyzed in FlowJo v10.8.1.

[3] = size matched CT2A tumors, BAPN 2 g/L in drinking water

Row | SMILES | CD45+CD3+CD8+CD69+ activated T cells (005 GSC tumors) | CD45+CD3+CD8+IFN-γ+ activated T cells (005 GSC tumors) | intratumoral CD4+ T cells (CT2A tumors [1]) | intratumoral CD8+ T cells (CT2A tumors [1]) | intratumoral activated CD8+ (CD8+CD69+) T cells (CT2A tumors [1]) | CX3CR1+ microglia in tumors (CT2A tumors [1]) | F4/80+ macrophages in tumors (CT2A tumors [1]) | CD45+CD3+CD8+CD69+ activated T cells (CT2A tumors [2]) | CD45+CD3+CD8+IFN-γ+ activated T cells (CT2A tumors [2]) | CD45highCD11b+CD68+ macrophages (CT2A tumors [2]; [3]) | CD45lowCD11b+CX3CR1+ microglia (CT2A tumors [2]; [3])
1 | CCOC(=O)N1CCC(CN(Cc2ccc(Cl)cc2)Cc2ccc([N+](=O)[O-])s2)C1 (centres unmarked) [SR9009] | Increases | Increases | increased | increased | increased | reduced | did not affect | Increases | Increases |  | 
2 | N#CCCN [BAPN, β-aminopropionitrile] | Increases | Increases | increased | increased | increased | higher | lower | Increases | Increases | decreased | increased
